Values quoted from earlier work in patent publication US20140023726A1, “POLYMORPHISMS PREDICTIVE OF PLATINUM-COORDINATING COMPLEX INDUCED OTOTOXICITY” (The University of British Columbia, priority 2006, published 2014).
Read-outs that look alike come from different tables or passages of the source.

Structure (SMILES): N.N.[Cl][Pt][Cl] [cisplatin, trans-diaminedichloro-platinum(II)]
- Permanent hearing loss, frequency in patients (children less than 5, standard doses of cisplatin): 48%
- Permanent hearing loss, frequency in patients (patients receiving standard doses of cisplatin): 25%
